{
  "source": "ChEMBL document CHEMBL3885881",
  "about": "“DrugMatrix”",
  "species": "Rattus norvegicus",
  "assay": "DrugMatrix - Regimen: Daily Repeat",
  "format": "toxicity, organism-based, Sprague-Dawley",
  "set-up": "regimen Daily Repeat, gender Male, age 6-8 weeks",
  "settings": "in vivo, po, 500 mg/kg, route oral GAVAGE, dose level Low, vehicle .5 % CMC; for ABSOLUTE BASOPHIL / ABSOLUTE EOSINOPHIL / ABSOLUTE LYMPHOCYTE / ABSOLUTE MONOCYTE / ABSOLUTE SEGMENTED NEUTROPHIL / BASOPHIL / EOSINOPHIL / ERYTHROCYTE COUNT / HEMATOCRIT / HEMOGLOBIN / LEUKOCYTE COUNT / LYMPHOCYTE / MEAN CORPUSCULAR HEMOGLOBIN / MEAN CORPUSCULAR HEMOGLOBIN CONCENTRATION / MEAN CORPUSCULAR VOLUME / MONOCYTE / NEUTROPHIL / NUCLEATED RED BLOOD CELLS / PLATELET COUNT: tissue Blood; for ALANINE AMINOTRANSFERASE / ALBUMIN / ALKALINE PHOSPHATASE / ASPARTATE AMINOTRANSFERASE / BLOOD UREA NITROGEN / CARBON DIOXIDE / CHLORIDE / CHOLESTEROL / CREATINE PHOSPHOKINASE / CREATININE / GLUCOSE / LACTATE DEHYDROGENASE / LIPASE / PHOSPHORUS / POTASSIUM / SODIUM / TOTAL BILIRUBIN / TOTAL PROTEIN / URIC ACID: tissue Plasma",
  "data": [
    {"compound": "NC[C@H]1CC[C@H](C(=O)O)CC1", "note": "[TRANEXAMIC ACID]", "values": [
      {"measurement": "ABSOLUTE BASOPHIL", "setting": "72 h, time 3 day", "value": 0, "unit": "CELLS/uL"},
      {"measurement": "ABSOLUTE EOSINOPHIL", "setting": "72 h, time 3 day", "value": 94.67, "unit": "CELLS/uL"},
      {"measurement": "ABSOLUTE LYMPHOCYTE", "setting": "72 h, time 3 day", "value": 11832.33, "unit": "CELLS/uL"},
      {"measurement": "ABSOLUTE MONOCYTE", "setting": "72 h, time 3 day", "value": 147, "unit": "CELLS/uL"},
      {"measurement": "ABSOLUTE SEGMENTED NEUTROPHIL", "setting": "72 h, time 3 day", "value": 2626, "unit": "CELLS/uL"},
      {"measurement": "BASOPHIL", "setting": "72 h, time 3 day", "value": 0, "unit": "%"},
      {"measurement": "EOSINOPHIL", "setting": "72 h, time 3 day", "value": 0.67, "unit": "%"},
      {"measurement": "ERYTHROCYTE COUNT", "setting": "72 h, time 3 day", "value": 5.82, "unit": "x10E6/uL"},
      {"measurement": "HEMATOCRIT", "setting": "72 h, time 3 day", "value": 36.4, "unit": "%"},
      {"measurement": "HEMOGLOBIN", "setting": "72 h, time 3 day", "value": 14.33, "unit": "G/DL"},
      {"measurement": "LEUKOCYTE COUNT", "setting": "72 h, time 3 day", "value": 14.7, "unit": "x10E3/uL"},
      {"measurement": "LYMPHOCYTE", "setting": "72 h, time 3 day", "value": 80.33, "unit": "%"},
      {"measurement": "MEAN CORPUSCULAR HEMOGLOBIN", "setting": "72 h, time 3 day", "value": 24.63, "unit": "pg"},
      {"measurement": "MEAN CORPUSCULAR HEMOGLOBIN CONCENTRATION", "setting": "72 h, time 3 day", "value": 39.43, "unit": "G/DL"},
      {"measurement": "MEAN CORPUSCULAR VOLUME", "setting": "72 h, time 3 day", "value": 62.5, "unit": "fL"},
      {"measurement": "MONOCYTE", "setting": "72 h, time 3 day", "value": 1, "unit": "%"},
      {"measurement": "NEUTROPHIL", "setting": "72 h, time 3 day", "value": 18, "unit": "%"},
      {"measurement": "NUCLEATED RED BLOOD CELLS", "setting": "72 h, time 3 day", "value": "0 /100WBC"},
      {"measurement": "PLATELET COUNT", "setting": "72 h, time 3 day", "value": 1287, "unit": "x10E3/uL"},
      {"measurement": "ALANINE AMINOTRANSFERASE", "setting": "72 h, time 3 day", "value": 49.33, "unit": "u/L"},
      {"measurement": "ALBUMIN", "setting": "72 h, time 3 day", "value": 4.3, "unit": "G/DL"},
      {"measurement": "ALKALINE PHOSPHATASE", "setting": "72 h, time 3 day", "value": 364.33, "unit": "u/L"},
      {"measurement": "ASPARTATE AMINOTRANSFERASE", "setting": "72 h, time 3 day", "value": 83, "unit": "u/L"},
      {"measurement": "BLOOD UREA NITROGEN", "setting": "72 h, time 3 day", "value": 13.67, "unit": "mg/dL"},
      {"measurement": "CARBON DIOXIDE", "setting": "72 h, time 3 day", "value": 25.33, "unit": "mmol/L"},
      {"measurement": "CHLORIDE", "setting": "72 h, time 3 day", "value": 102, "unit": "MEQ/L"},
      {"measurement": "CHOLESTEROL", "setting": "72 h, time 3 day", "value": 81, "unit": "mg/dL"},
      {"measurement": "CREATINE PHOSPHOKINASE", "setting": "72 h, time 3 day", "value": 246, "unit": "u/L"},
      {"measurement": "CREATININE", "setting": "72 h, time 3 day", "value": 0.17, "unit": "mg/dL"},
      {"measurement": "GLUCOSE", "setting": "72 h, time 3 day", "value": 155, "unit": "mg/dL"},
      {"measurement": "LACTATE DEHYDROGENASE", "setting": "72 h, time 3 day", "value": 225.67, "unit": "u/L"},
      {"measurement": "LIPASE", "setting": "72 h, time 3 day", "value": 10, "unit": "u/L"},
      {"measurement": "PHOSPHORUS", "setting": "72 h, time 3 day", "value": 14.07, "unit": "mg/dL"},
      {"measurement": "POTASSIUM", "setting": "72 h, time 3 day", "value": 6.58, "unit": "MEQ/L"},
      {"measurement": "SODIUM", "setting": "72 h, time 3 day", "value": 145.07, "unit": "MEQ/L"},
      {"measurement": "TOTAL BILIRUBIN", "setting": "72 h, time 3 day", "value": 0.2, "unit": "mg/dL"},
      {"measurement": "TOTAL PROTEIN", "setting": "72 h, time 3 day", "value": 6.07, "unit": "G/DL"},
      {"measurement": "URIC ACID", "setting": "72 h, time 3 day", "value": 1.83, "unit": "mg/dL"},
      {"measurement": "ABSOLUTE BASOPHIL", "setting": "120 h, time 5 day", "value": 0, "unit": "CELLS/uL"},
      {"measurement": "ABSOLUTE EOSINOPHIL", "setting": "120 h, time 5 day", "value": 0, "unit": "CELLS/uL"},
      {"measurement": "ABSOLUTE LYMPHOCYTE", "setting": "120 h, time 5 day", "value": 10774, "unit": "CELLS/uL"},
      {"measurement": "ABSOLUTE MONOCYTE", "setting": "120 h, time 5 day", "value": 92, "unit": "CELLS/uL"},
      {"measurement": "ABSOLUTE SEGMENTED NEUTROPHIL", "setting": "120 h, time 5 day", "value": 2034, "unit": "CELLS/uL"},
      {"measurement": "BASOPHIL", "setting": "120 h, time 5 day", "value": 0, "unit": "%"},
      {"measurement": "EOSINOPHIL", "setting": "120 h, time 5 day", "value": 0, "unit": "%"},
      {"measurement": "ERYTHROCYTE COUNT", "setting": "120 h, time 5 day", "value": 5.74, "unit": "x10E6/uL"},
      {"measurement": "HEMATOCRIT", "setting": "120 h, time 5 day", "value": 35.7, "unit": "%"},
      {"measurement": "HEMOGLOBIN", "setting": "120 h, time 5 day", "value": 14.13, "unit": "G/DL"},
      {"measurement": "LEUKOCYTE COUNT", "setting": "120 h, time 5 day", "value": 12.9, "unit": "x10E3/uL"},
      {"measurement": "LYMPHOCYTE", "setting": "120 h, time 5 day", "value": 83.67, "unit": "%"},
      {"measurement": "MEAN CORPUSCULAR HEMOGLOBIN", "setting": "120 h, time 5 day", "value": 24.67, "unit": "pg"},
      {"measurement": "MEAN CORPUSCULAR HEMOGLOBIN CONCENTRATION", "setting": "120 h, time 5 day", "value": 39.57, "unit": "G/DL"},
      {"measurement": "MEAN CORPUSCULAR VOLUME", "setting": "120 h, time 5 day", "value": 62.33, "unit": "fL"},
      {"measurement": "MONOCYTE", "setting": "120 h, time 5 day", "value": 0.67, "unit": "%"},
      {"measurement": "NEUTROPHIL", "setting": "120 h, time 5 day", "value": 15.67, "unit": "%"},
      {"measurement": "NUCLEATED RED BLOOD CELLS", "setting": "120 h, time 5 day", "value": "0 /100WBC"},
      {"measurement": "PLATELET COUNT", "setting": "120 h, time 5 day", "value": 1198, "unit": "x10E3/uL"},
      {"measurement": "ALANINE AMINOTRANSFERASE", "setting": "120 h, time 5 day", "value": 58.67, "unit": "u/L"},
      {"measurement": "ALBUMIN", "setting": "120 h, time 5 day", "value": 4.17, "unit": "G/DL"},
      {"measurement": "ALKALINE PHOSPHATASE", "setting": "120 h, time 5 day", "value": 364.67, "unit": "u/L"},
      {"measurement": "ASPARTATE AMINOTRANSFERASE", "setting": "120 h, time 5 day", "value": 90.67, "unit": "u/L"},
      {"measurement": "BLOOD UREA NITROGEN", "setting": "120 h, time 5 day", "value": 15, "unit": "mg/dL"},
      {"measurement": "CARBON DIOXIDE", "setting": "120 h, time 5 day", "value": 25.67, "unit": "mmol/L"},
      {"measurement": "CHLORIDE", "setting": "120 h, time 5 day", "value": 102, "unit": "MEQ/L"},
      {"measurement": "CHOLESTEROL", "setting": "120 h, time 5 day", "value": 61, "unit": "mg/dL"},
      {"measurement": "CREATINE PHOSPHOKINASE", "setting": "120 h, time 5 day", "value": 280.67, "unit": "u/L"},
      {"measurement": "CREATININE", "setting": "120 h, time 5 day", "value": 0.21, "unit": "mg/dL"},
      {"measurement": "GLUCOSE", "setting": "120 h, time 5 day", "value": 154, "unit": "mg/dL"},
      {"measurement": "LACTATE DEHYDROGENASE", "setting": "120 h, time 5 day", "value": 250.33, "unit": "u/L"},
      {"measurement": "LIPASE", "setting": "120 h, time 5 day", "value": 9.33, "unit": "u/L"},
      {"measurement": "PHOSPHORUS", "setting": "120 h, time 5 day", "value": 12.3, "unit": "mg/dL"},
      {"measurement": "POTASSIUM", "setting": "120 h, time 5 day", "value": 6.07, "unit": "MEQ/L"},
      {"measurement": "SODIUM", "setting": "120 h, time 5 day", "value": 144.43, "unit": "MEQ/L"},
      {"measurement": "TOTAL BILIRUBIN", "setting": "120 h, time 5 day", "value": 0.17, "unit": "mg/dL"},
      {"measurement": "TOTAL PROTEIN", "setting": "120 h, time 5 day", "value": 5.9, "unit": "G/DL"},
      {"measurement": "URIC ACID", "setting": "120 h, time 5 day", "value": 1.53, "unit": "mg/dL"}
    ]}
  ]
}
